The text below walks through data of ChEMBL document CHEMBL4406858, “Discovery of 2-aminopyridines bearing a pyridone moiety as potent ALK inhibitors to overcome the crizotinib-resistant mutants” (Eur J Med Chem, 2019).

Some results are limits rather than exact numbers.

The subject of assay [1] is NCI-H2228. Description: cells. The note with it: Homo sapiens, NCI-H2228, 72 h.
Description: Antiproliferative activity against human NCI-H2228 cells expressing EML4-ALK assessed as reduction in cell viability incubated for 72 hrs by MTT assay
Assay [2] concerns SH-SY5Y. Description: cells. The note with it: Homo sapiens, 72 h.
Description: Antiproliferative activity against human SH-SY5Y cells expressing ALK F1174L mutant assessed as reduction in cell viability incubated for 72 hrs by MTT assay
Assay [3] can be described thus: cells. The note with it: Homo sapiens, SKNBE2, 72 h.
Description: Antiproliferative activity against human SK-N-BE(2) cells expressing wild type ALK assessed as reduction in cell viability incubated for 72 hrs by MTT assay
Assay [4] has as its system KARPAS-299. Description: cells. The note with it: Homo sapiens, KARPAS-299, 72 h.
Description: Antiproliferative activity against human KARPAS299 cells expressing NMP-ALK assessed as reduction in cell viability incubated for 72 hrs by MTT assay
In assay [5] the test system is KARPAS-299. Description: Cell cycle arrest in human KARPAS299 cells expressing […] assessed as accumulation of cells at S phase at 1 uM incubated for 48 hrs by propidium iodide staining based flow cytometry (reference value: 28.83%). The assay is classed as functional. A general note: Flow cytometry measures light scatter and fluorescence of single cells or particles in a stream.

Assay [6] has as its system KARPAS-299. Briefly: Cell cycle arrest in human KARPAS299 cells expressing […] assessed as accumulation of cells at G1 phase at 1 uM incubated for 48 hrs by propidium iodide staining based flow cytometry (reference value: 58.94%). It is filed as functional.
Assay [7] concerns KARPAS-299. Description: Cell cycle arrest in human KARPAS299 cells expressing […] assessed as accumulation of cells at G2 phase at 1 uM incubated for 48 hrs by propidium iodide staining based flow cytometry (reference value: 3.68%). It is filed as functional.
The target in assay [8] is Proto-oncogene tyrosine-protein kinase ROS (Homo sapiens, UniProt P08922). Briefly: Inhibition of recombinant human N-terminal GST-tagged ROS (1883 to 2347 residues) expressed in baculovirus expression system using IRS1 as substrate incubated with enzyme and substrate for 5 mins followed by ATP addition followed by further incubation for 30 mins by HTRF assay. In general terms: In TR-FRET formats the signal depends on donor and acceptor labels being close together.
Proto-oncogene tyrosine-protein kinase ROS, sequence (P08922 whole entry, the tested form may be a part): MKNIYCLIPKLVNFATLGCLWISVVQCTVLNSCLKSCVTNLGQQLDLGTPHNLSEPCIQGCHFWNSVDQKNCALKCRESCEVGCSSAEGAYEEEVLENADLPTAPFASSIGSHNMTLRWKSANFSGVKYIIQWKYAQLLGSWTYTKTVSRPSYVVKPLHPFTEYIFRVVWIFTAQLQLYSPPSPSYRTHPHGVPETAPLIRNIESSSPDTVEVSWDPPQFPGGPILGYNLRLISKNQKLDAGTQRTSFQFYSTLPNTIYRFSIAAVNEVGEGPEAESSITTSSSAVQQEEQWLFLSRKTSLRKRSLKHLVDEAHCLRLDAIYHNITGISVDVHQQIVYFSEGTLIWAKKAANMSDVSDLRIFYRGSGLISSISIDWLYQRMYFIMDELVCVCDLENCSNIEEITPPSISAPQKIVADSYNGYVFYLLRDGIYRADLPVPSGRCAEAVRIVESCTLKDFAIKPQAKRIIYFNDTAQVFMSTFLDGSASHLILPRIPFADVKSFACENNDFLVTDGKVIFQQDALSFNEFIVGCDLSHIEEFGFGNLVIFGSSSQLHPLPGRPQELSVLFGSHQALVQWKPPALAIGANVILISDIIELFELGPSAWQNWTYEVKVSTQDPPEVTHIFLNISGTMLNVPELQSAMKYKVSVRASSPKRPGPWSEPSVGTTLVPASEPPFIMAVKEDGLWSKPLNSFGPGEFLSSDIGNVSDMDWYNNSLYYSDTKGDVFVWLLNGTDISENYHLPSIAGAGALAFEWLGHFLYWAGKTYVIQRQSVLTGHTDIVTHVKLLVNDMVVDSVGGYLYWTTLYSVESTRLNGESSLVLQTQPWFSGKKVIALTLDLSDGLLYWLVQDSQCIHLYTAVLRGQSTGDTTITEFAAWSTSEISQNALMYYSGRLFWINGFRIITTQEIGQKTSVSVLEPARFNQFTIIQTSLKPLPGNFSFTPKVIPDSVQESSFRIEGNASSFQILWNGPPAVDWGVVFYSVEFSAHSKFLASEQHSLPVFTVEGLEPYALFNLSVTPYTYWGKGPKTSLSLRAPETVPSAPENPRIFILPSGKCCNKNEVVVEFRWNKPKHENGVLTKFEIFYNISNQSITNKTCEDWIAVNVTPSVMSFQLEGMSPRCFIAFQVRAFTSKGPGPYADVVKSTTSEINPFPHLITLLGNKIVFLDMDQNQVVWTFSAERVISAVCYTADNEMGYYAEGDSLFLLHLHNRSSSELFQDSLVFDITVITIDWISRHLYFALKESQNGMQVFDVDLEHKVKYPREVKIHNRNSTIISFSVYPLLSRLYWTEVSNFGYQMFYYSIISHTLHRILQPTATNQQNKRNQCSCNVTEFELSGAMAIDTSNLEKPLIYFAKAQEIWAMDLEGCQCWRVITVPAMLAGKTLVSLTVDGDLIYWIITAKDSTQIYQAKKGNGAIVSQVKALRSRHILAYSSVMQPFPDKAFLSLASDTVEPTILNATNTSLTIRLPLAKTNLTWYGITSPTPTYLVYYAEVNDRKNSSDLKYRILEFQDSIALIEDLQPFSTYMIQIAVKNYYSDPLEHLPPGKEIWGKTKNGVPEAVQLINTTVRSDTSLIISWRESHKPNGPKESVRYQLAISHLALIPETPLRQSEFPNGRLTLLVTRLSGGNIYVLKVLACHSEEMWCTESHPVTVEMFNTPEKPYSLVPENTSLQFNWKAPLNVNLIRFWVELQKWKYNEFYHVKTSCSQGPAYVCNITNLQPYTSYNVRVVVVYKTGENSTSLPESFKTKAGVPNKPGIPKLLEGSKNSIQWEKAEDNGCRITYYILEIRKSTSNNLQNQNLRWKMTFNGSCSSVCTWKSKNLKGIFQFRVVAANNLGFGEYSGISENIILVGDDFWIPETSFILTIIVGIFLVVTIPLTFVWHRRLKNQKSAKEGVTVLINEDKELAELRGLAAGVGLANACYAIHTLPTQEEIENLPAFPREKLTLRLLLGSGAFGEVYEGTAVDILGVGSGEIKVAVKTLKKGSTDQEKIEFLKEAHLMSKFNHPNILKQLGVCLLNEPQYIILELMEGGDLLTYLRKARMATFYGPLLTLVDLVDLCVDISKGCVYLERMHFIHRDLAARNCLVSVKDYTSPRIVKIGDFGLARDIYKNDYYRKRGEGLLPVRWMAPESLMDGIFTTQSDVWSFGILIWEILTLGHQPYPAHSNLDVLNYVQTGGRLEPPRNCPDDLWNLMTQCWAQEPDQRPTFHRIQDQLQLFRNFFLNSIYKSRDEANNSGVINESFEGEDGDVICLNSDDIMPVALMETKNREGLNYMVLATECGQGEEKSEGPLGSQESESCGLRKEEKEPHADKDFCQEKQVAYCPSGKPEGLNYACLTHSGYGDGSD

For `CCCn1ccc(-c2cnc(N)c(O[C@H](C)c3c(Cl)ccc(F)c3Cl)c2)cc1=O`, the 50% inhibitory concentration (IC50) (commonly the concentration that inhibits the measured activity by half) was 1220 nM in assay [1], 2150 nM in assay [2], 1430 nM in assay [3] and 110 nM in assay [4].
The like results for `CCn1ccc(-c2cnc(N)c(O[C@H](C)c3c(Cl)ccc(F)c3Cl)c2)cc1=O` were, in that order, 1200 nM, 2510 nM, 1440 nM and 60 nM.
`C[C@@H](Sc1cc(-c2ccn(CCN(C)C)c(=O)c2)cnc1N)c1c(Cl)ccc(F)c1Cl` gave an IC50 in assay [4] of 280 nM.
Consider `C[C@@H](Oc1cc(-c2ccn(Cc3ccccc3)c(=O)c2)cnc1N)c1c(Cl)ccc(F)c1Cl`, for which the IC50 in assay [1] turned out to be 1300 nM; in assay [2], 1350 nM; in assay [3], 1020 nM; in assay [4], 130 nM.
In turn, `CC(Oc1cc(-c2ccn(C)c(=O)c2)cnc1N)c1ccccn1` (stereo not given) yielded an IC50 in assay [4] of 11900 nM.
As for `CCOC(=O)Cn1ccc(-c2cnc(N)c(O[C@H](C)c3c(Cl)ccc(F)c3Cl)c2)cc1=O`, the IC50 is 3320 nM in assay [1], 1850 nM in assay [2], 1230 nM in assay [3] and 210 nM in assay [4].
Turning to `C[C@@H](Oc1cc(-c2ccn(CCN(C)C)c(=O)c2)cnc1N)c1c(Cl)ccc(F)c1Cl`, the Activity in assay [5] came to 8%; in assay [6], 81.46%; in assay [7], 5.43%. Also, the concentration for half-maximal inhibition (IC50) is 440 nM in assay [1]; 1670 nM in assay [2]; 2.3 nM in assay [8]; 710 nM in assay [3]; 40 nM in assay [4].
`CC(NC(=O)c1cc(-c2cc[nH]c(=O)c2)cnc1N)c1c(Cl)ccc(F)c1Cl` (stereo not given) showed an IC50 in assay [4] of more than 20000 nM.
The same measure, in the same setting: to `CC(NC(=O)c1cc(-c2ccn(C)c(=O)c2)cnc1N)c1c(Cl)ccc(F)c1Cl` (stereo not given) belongs more than 20000 nM; to `CC(Oc1cc(-c2cc[nH]c(=O)c2)cnc1N)c1ccc(Cl)cc1` (stereo not given), 17800 nM; to `CC(Oc1cc(-c2ccn(C)c(=O)c2)cnc1N)c1c(Cl)ccc(F)c1Cl` (racemic), 200 nM.
Turning to `C[C@@H](Sc1cc(-c2ccn(C)c(=O)c2)cnc1N)c1c(Cl)ccc(F)c1Cl`, the half-inhibitory concentration (IC50) in assay [4] was 400 nM.
On the same count and under the same terms, to `CC(Oc1cc(-c2ccn(C)c(=O)c2)cnc1N)c1ccc(Cl)cc1` (stereo not given) belongs 20900 nM; to `CC(Oc1cc(-c2cc[nH]c(=O)c2)cnc1N)c1ccccc1` (stereo not given), 4400 nM; to `C[C@@H](Sc1cc(-c2ccn(Cc3ccccc3)c(=O)c2)cnc1N)c1c(Cl)ccc(F)c1Cl`, 790 nM.
The compound `Cc1ccc(C(C)Oc2cc(-c3ccn(C)c(=O)c3)cnc2N)cc1` (stereo not given) yielded an IC50 in assay [4] of 7780 nM.
Take `C[C@@H](Oc1cc(-c2ccn(C)c(=O)c2)cnc1N)c1c(Cl)ccc(F)c1Cl`: the IC50 in assay [1] was found to be 690 nM; in assay [2], 1870 nM; in assay [3] it was 830 nM; in assay [4] it was 40 nM.
In the same order, the values of `C[C@@H](Oc1cc(-c2cc[nH]c(=O)c2)cnc1N)c1c(Cl)ccc(F)c1Cl` are 640 nM, 2070 nM, 750 nM and 50 nM.
`CC(Oc1cc(-c2cc[nH]c(=O)c2)cnc1N)c1c(Cl)ccc(F)c1Cl` (racemic): in assay [4], the half-inhibitory concentration (IC50) amounted to 120 nM.
For `C[C@@H](Sc1cc(-c2cc[nH]c(=O)c2)cnc1N)c1c(Cl)ccc(F)c1Cl`, the midpoint of inhibition in assay [4], the IC50, lay at 720 nM.
On the same count and under the same terms, for `CC(Oc1cc(-c2ccn(Cc3ccccc3)c(=O)c2)cnc1N)c1c(Cl)ccc(F)c1Cl` (racemic) the value was 320 nM; for `CC(Oc1cc(-c2ccn(C)c(=O)c2)cnc1N)c1ccncc1` (stereo not given), more than 20000 nM.
Same read-out and setting: to `CC(Oc1cc(-c2ccn(C)c(=O)c2)cnc1N)c1ccccc1` (stereo not given) belongs 2860 nM.
The same measure, in the same setting: to `Cc1ccc(C(C)Oc2cc(-c3cc[nH]c(=O)c3)cnc2N)cc1` (stereo not given) belongs 10200 nM.
For `CC(Oc1cc(-c2ccn(C)c(=O)c2)cnc1N)c1cccnc1` (stereo not given), 11200 nM corresponded to half-maximal inhibition in assay [4] (IC50).
